Measurements from ChEMBL document CHEMBL1201862, “PubChem BioAssay data set” (2004).
Values joined by “and” are separate entries in the source; they are usually repeats but may differ in a detail not shown here. Identical values can stand only once.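 Method: 48-hour compound exposure of cells in 96-well plates, five concentrations, linear interpolation of endpoints. The concentration for 50% growth inhibition is given as GI50.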 Active and inactive are the calls of the source. Cut-off read from the data, not from the text of the source: active = GI50 up to about 1.1 µM and inactive = higher.

Tests used:
Experiment in all cases: NCI tumour cell line growth inhibition, 48 h
TK-10 = tested on: TK-10
SK-MEL-28 = tested on: SK-MEL-28
BT-549 = tested on: BT-549
Malme-3M = tested on: Malme-3M
ACHN = tested on: ACHN
MDA-MB-435 = tested on: MDA-MB-435
COLO 205 = tested on: COLO 205
UACC-257 = tested on: UACC-257
MDA-N = tested on: MDA-N
NCI-H460 = tested on: NCI-H460
NCI/ADR-RES = tested on: NCI/ADR-RES
A498 = tested on: A498
M14 = tested on: M14
OVCAR-5 = tested on: OVCAR-5
NCI-H522 = tested on: NCI-H522
DU-145 = tested on: DU-145
SN12C = tested on: SN12C
A549 = tested on: A549
NCI-H23 = tested on: NCI-H23
IGROV-1 = tested on: IGROV-1
NCI-H226 = tested on: NCI-H226
HCT-15 = tested on: HCT-15
SK-MEL-5 = tested on: SK-MEL-5
MDA-MB-231 = tested on: MDA-MB-231
UO-31 = tested on: UO-31
OVCAR-8 = tested on: OVCAR-8
OVCAR-4 = tested on: OVCAR-4
EKVX = tested on: EKVX
SF-268 = tested on: SF-268
KM12 = tested on: KM12
SF-539 = tested on: SF-539
SF-295 = tested on: SF-295
SK-OV-3 = tested on: SK-OV-3
CCRF-CEM = tested on: CCRF-CEM
RPMI-8226 = tested on: RPMI-8226
RXF 393 = tested on: RXF 393
SW-620 = tested on: SW-620
SNB-19 = tested on: SNB-19
HCC 2998 = tested on: HCC 2998
UACC-62 = tested on: UACC-62
Hs-578T = tested on: Hs-578T
LOX IMVI = tested on: LOX IMVI
HOP-62 = tested on: HOP-62
U-251 = tested on: U-251
SK-MEL-2 = tested on: SK-MEL-2
MOLT-4 = tested on: MOLT-4
HCT-116 = tested on: HCT-116
SR = tested on: SR
MCF7 = tested on: MCF7
PC-3 = tested on: PC-3
K562 = tested on: K562
T47D = tested on: T47D
OVCAR-3 = tested on: OVCAR-3
CAKI-1 = tested on: CAKI-1
HL-60 = tested on: HL-60
SNB-75 = tested on: SNB-75
HT-29 = tested on: HT-29
786-0 = tested on: 786-0
HOP-92 = tested on: HOP-92

CC(=O)OCC1OC(n2c3c(cc(C#N)c2=S)CCCC3)C(OC(C)=O)C(OC(C)=O)C1OC(C)=O (configuration not stated)
GI50 (TK-10): > 100 µM (inactive) | GI50 (SK-MEL-28): > 100 µM (inactive) | GI50 (BT-549): > 100 µM (inactive) | GI50 (Malme-3M): > 100 µM (inactive) | GI50 (ACHN): > 64.4 µM (inactive) | GI50 (MDA-MB-435): > 100 µM (inactive) | GI50 (COLO 205): > 100 µM (inactive) | GI50 (UACC-257): > 100 µM (inactive) | GI50 (MDA-N): > 100 µM (inactive) | GI50 (NCI-H460): > 100 µM (inactive) and 50.9 µM (inactive) | GI50 (NCI/ADR-RES): > 74.1 µM (inactive) | GI50 (A498): > 100 µM (inactive) | GI50 (M14): > 100 µM (inactive) | GI50 (OVCAR-5): > 100 µM (inactive) | GI50 (NCI-H522): 42.8 µM (inactive) and 40.8 µM (inactive) | GI50 (DU-145): > 100 µM (inactive) | GI50 (SN12C): > 100 µM (inactive) | GI50 (A549): > 91.4 µM (inactive) | GI50 (NCI-H23): > 100 µM (inactive) and 62.5 µM (inactive) | GI50 (IGROV-1): 57.8 µM (inactive) | GI50 (NCI-H226): > 100 µM (inactive) and > 80 µM (inactive) | GI50 (HCT-15): > 100 µM | GI50 (SK-MEL-5): > 76.4 µM (inactive) | GI50 (MDA-MB-231): > 100 µM (inactive) | GI50 (UO-31): > 100 µM (inactive) | GI50 (OVCAR-8): > 60.5 µM (inactive) | GI50 (OVCAR-4): > 100 µM (inactive) | GI50 (EKVX): 70 µM (inactive)

OCC(CO)CC1COc2ccccc2O1 (configuration not stated)
GI50 (TK-10): > 10 µM (inactive) | GI50 (SK-MEL-28): > 10 µM (inactive) | GI50 (Malme-3M): > 10 µM (inactive) | GI50 (ACHN): > 10 µM (inactive) | GI50 (SF-268): > 10 µM (inactive) | GI50 (MDA-MB-435): > 10 µM (inactive) | GI50 (KM12): > 10 µM (inactive) | GI50 (SF-539): > 10 µM (inactive) | GI50 (COLO 205): > 10 µM (inactive) | GI50 (SF-295): > 10 µM (inactive) | GI50 (SK-OV-3): > 10 µM (inactive) | GI50 (MDA-N): > 10 µM (inactive) | GI50 (CCRF-CEM): > 10 µM (inactive) | GI50 (NCI-H460): > 10 µM (inactive) | GI50 (RPMI-8226): > 10 µM (inactive) | GI50 (RXF 393): > 10 µM (inactive) | GI50 (SW-620): > 10 µM (inactive) | GI50 (NCI/ADR-RES): > 10 µM (inactive) | GI50 (SNB-19): > 10 µM (inactive) | GI50 (HCC 2998): > 10 µM (inactive) | GI50 (A498): > 10 µM (inactive) | GI50 (UACC-62): > 10 µM (inactive) | GI50 (Hs-578T): > 10 µM (inactive) | GI50 (M14): > 10 µM (inactive) | GI50 (OVCAR-5): > 10 µM (inactive) | GI50 (NCI-H522): > 10 µM (inactive) | GI50 (LOX IMVI): > 10 µM (inactive) | GI50 (DU-145): > 10 µM (inactive) | GI50 (SN12C): > 10 µM (inactive) | GI50 (A549): > 10 µM (inactive) | GI50 (HOP-62): > 10 µM (inactive) | GI50 (NCI-H23): > 10 µM (inactive) | GI50 (IGROV-1): > 10 µM (inactive) | GI50 (U-251): > 10 µM (inactive) | GI50 (SK-MEL-2): > 10 µM (inactive) | GI50 (NCI-H226): > 10 µM (inactive) | GI50 (MOLT-4): > 10 µM (inactive) | GI50 (HCT-116): > 10 µM (inactive) | GI50 (HCT-15): > 10 µM | GI50 (SK-MEL-5): > 10 µM (inactive) | GI50 (SR): > 10 µM (inactive) | GI50 (MCF7): > 10 µM (inactive) | GI50 (PC-3): > 10 µM (inactive) | GI50 (K562): > 10 µM (inactive) | GI50 (T47D): > 10 µM (inactive) | GI50 (MDA-MB-231): > 10 µM (inactive) | GI50 (OVCAR-3): > 10 µM (inactive) | GI50 (CAKI-1): > 10 µM (inactive) | GI50 (UO-31): > 10 µM (inactive) | GI50 (HL-60): > 10 µM (inactive) | GI50 (SNB-75): > 10 µM (inactive) | GI50 (OVCAR-8): > 10 µM (inactive) | GI50 (OVCAR-4): > 10 µM (inactive) | GI50 (EKVX): > 10 µM (inactive) | GI50 (HT-29): > 10 µM (inactive)

COc1cc(C2c3cccc4cccc(c34)C3CCC(=O)N32)cc(OC)c1O (configuration not stated)
GI50 (SK-MEL-28): > 50 µM (inactive) | GI50 (BT-549): > 50 µM (inactive) | GI50 (ACHN): > 50 µM (inactive) | GI50 (MDA-MB-435): > 50 µM (inactive) | GI50 (786-0): > 50 µM (inactive) | GI50 (KM12): > 50 µM (inactive) | GI50 (SF-539): > 50 µM (inactive) | GI50 (COLO 205): > 50 µM (inactive) | GI50 (SF-295): > 50 µM (inactive) | GI50 (SK-OV-3): > 50 µM (inactive) | GI50 (UACC-257): > 50 µM (inactive) | GI50 (MDA-N): > 50 µM (inactive) | GI50 (CCRF-CEM): > 50 µM (inactive) | GI50 (NCI-H460): > 50 µM (inactive) | GI50 (RPMI-8226): > 50 µM (inactive) | GI50 (RXF 393): > 50 µM (inactive) | GI50 (SW-620): > 50 µM (inactive) | GI50 (NCI/ADR-RES): > 50 µM (inactive) | GI50 (SNB-19): > 50 µM (inactive) | GI50 (A498): > 50 µM (inactive) | GI50 (UACC-62): > 50 µM (inactive) | GI50 (M14): > 50 µM (inactive) | GI50 (OVCAR-5): > 50 µM (inactive) | GI50 (DU-145): > 50 µM (inactive) | GI50 (SN12C): > 50 µM (inactive) | GI50 (A549): 42.7 µM (inactive) | GI50 (HOP-62): > 50 µM (inactive) | GI50 (NCI-H23): > 50 µM (inactive) | GI50 (IGROV-1): > 50 µM (inactive) | GI50 (U-251): > 50 µM (inactive) | GI50 (SK-MEL-2): > 50 µM (inactive) | GI50 (NCI-H226): > 50 µM (inactive) | GI50 (MOLT-4): > 50 µM (inactive) | GI50 (HCT-116): > 50 µM (inactive) | GI50 (HCT-15): > 50 µM | GI50 (SR): > 50 µM (inactive) | GI50 (MCF7): > 50 µM (inactive) | GI50 (PC-3): > 50 µM (inactive) | GI50 (K562): > 50 µM (inactive) | GI50 (T47D): > 50 µM (inactive) | GI50 (OVCAR-3): > 50 µM (inactive) | GI50 (UO-31): > 50 µM (inactive) | GI50 (HL-60): > 50 µM (inactive) | GI50 (SNB-75): > 50 µM (inactive) | GI50 (HOP-92): > 50 µM (inactive) | GI50 (OVCAR-8): > 50 µM (inactive) | GI50 (OVCAR-4): > 50 µM (inactive) | GI50 (EKVX): > 50 µM (inactive) | GI50 (HT-29): > 50 µM (inactive)
